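All cell lines were grown in 96-well plates and treated with compound for 48 hours. At the TGI there is no net growth.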
How the values were obtained:
Test in all cases: NCI anticancer screen, dose series, 48 h
DMS 114 small cell lung = system: DMS 114 small cell lung
DMS 273 small cell lung = system: DMS 273 small cell lung
EKVX NSCLC = system: EKVX NSCLC
HCT-15 colon = system: HCT-15 colon
HOP-18 NSCLC = system: HOP-18 NSCLC
HS 578T breast = system: HS 578T breast
HT29 colon = system: HT29 colon
LXFL 529 NSCLC = system: LXFL 529 NSCLC
NCI-H226 lung = system: NCI-H226 lung
RXF 393 renal = system: RXF 393 renal
SNB-78 CNS = system: SNB-78 CNS
SR leukemia = system: SR leukemia
XF 498 CNS = system: XF 498 CNS

In the case of COc1c2c(nc3ccccc13)-c1cc3c(c(=O)n1C2)COC(=O)C3(O)CC(=O)N1CCOCC1 (stereo not drawn), the TGI (DMS 114 small cell lung) is reported as 24.2 µM, the TGI (DMS 273 small cell lung) is reported as 12.4 µM and the TGI (EKVX NSCLC) is reported as over 93.6 µM. For the same compound, the TGI (HCT-15 colon) was over 100 µM, the TGI (HOP-18 NSCLC) was over 79.2 µM and the TGI (HS 578T breast) was over 88.8 µM. It also gave a TGI (HT29 colon) of 68 µM, a TGI (LXFL 529 NSCLC) of over 100 µM and a TGI (NCI-H226 lung) of 22.9 µM. For the same compound, the TGI (RXF 393 renal) was 26.9 µM, the TGI (SNB-78 CNS) was over 97.1 µM and the TGI (SR leukemia) was 17.5 µM. For the same compound, the TGI (XF 498 CNS) was 33.9 µM.
